Results published in ChEMBL document CHEMBL1157527 (2008).

Tested on: Candida albicans
Experiment: Antifungal activity against Candida albicans; also: unit not given here
Assay type: functional

SMILES | p(1/MIC)
CCCCCCC(C)(O)C[N+](C)(C)[BH2-]C#N (stereo unspecified) | 3.344
CCCCCCCCCCC[N+](C)(C)[BH-](Br)C#N (stereo unspecified) | 1.69
C[N+](C)([BH2-]C#N)CCCCCCCCCC[N+](C)(C)[BH2-]C#N | 2.611
C=CCCCC[N+](C)(C)[BH2-]C#N | 1.973
C[N+](C)(C)[B-](Br)(Br)C#N | 3.295
CCCCCCCCCCC[N+](C)(C)[B-](Br)(Br)C#N | 1.591
Cc1c(Cn2ccnc2)c2cc(Br)ccc2n1Cc1ccccc1F | 2.415
Cc1c(Cn2ccnc2)c2cc(Br)ccc2n1Cc1ccc(F)cc1 | 2.415
Fc1ccc(Cn2cc(Cn3ccnc3)c3ccccc32)cc1 | 1.117
Cc1c(Cn2ccnc2)c2cc(Br)ccc2n1Cc1ccc(Cl)cc1 | 1.902
CC(C)C(c1cn(Cc2ccc(Cl)cc2)c2ccccc12)n1ccnc1 (stereo unspecified) | 1.138
Clc1ccc(Cn2cc(Cn3ccnc3)c3ccccc32)c(Cl)c1 | 1.147
Cc1c(Cn2ccnc2)c2cc(Br)ccc2n1Cc1ccccc1Cl | 2.397
CCCCCCCCCCCCCCOP(=O)(OCCC#N)OC(Cn1cncn1)(Cn1cncn1)c1ccc(F)cc1F (stereo unspecified) | 3.17
N#CCCOP(=O)(OCCCCCCCCCCCBr)OC(Cn1cncn1)(Cn1cncn1)c1ccc(F)cc1F (stereo unspecified) | 3.392
Cc1c(Cn2ccnc2)c2ccccc2n1Cc1ccc(F)cc1 | 2.496
Cc1c(C(C)n2ccnc2)c2ccccc2n1Cc1ccc(F)cc1 (stereo unspecified) | 1.819
Cc1c(C(C)n2ccnc2)c2ccccc2n1Cc1ccc(Br)cc1 (stereo unspecified) | 2.404
Cc1c(Cn2ccnc2)c2ccccc2n1Cc1cc(Cl)ccc1Cl | 1.432
CCCCCCCCCCCCCCC[N+](C)(C)[BH2-]C#N | 1.724
C[N+](C)(CCCCCCCCCC[N+](C)(C)[BH-](Br)C#N)[BH-](Br)C#N (stereo unspecified) | 2.146

SMILES | p(1/MIC)
C[N+](C)(CCCCCCCCCC[N+](C)(C)[B-](Br)(Br)C#N)[B-](Br)(Br)C#N | 2.017
CCCCCCCCCCCCC[N+](C)(C)[BH2-]C#N | 1.763
O=C(Nc1ccc2oc(-c3ccc(F)cc3)nc2c1)SCc1ccccc1 | 1.813
C[N+](C)([BH2-]C#N)CC1(O)C=CCC1 (stereo unspecified) | 3.142
CC(Br)C(=O)OC(Cn1cncn1)(Cn1cncn1)c1ccc(F)cc1F (stereo unspecified) | 3.172
CCCC(Br)C(=O)OC(Cn1cncn1)(Cn1cncn1)c1ccc(F)cc1F (stereo unspecified) | 2.768
C[N+](C)([BH2-]C(=O)O)CCCCCCCCCC[N+](C)(C)[BH2-]C(=O)O | 2.274
C[N+](C)([BH2-]C#N)CCCCCCCCCCCC[N+](C)(C)[BH2-]C#N | 1.982
C[N+](C)([BH2-]C#N)CCCCCCCCCCCCCC[N+](C)(C)[BH2-]C#N | 1.634
CCCCC(Br)C(=O)OC(Cn1cncn1)(Cn1cncn1)c1ccc(F)cc1F (stereo unspecified) | 2.1
O=C(Nc1ccc2oc(-c3ccccc3)nc2c1)OCc1ccc(Cl)cc1 | 1.544
O=C(Nc1ccc2oc(-c3ccccc3)nc2c1)SCc1ccccc1 | 1.839
O=C(Cc1ccc([N+](=O)[O-])cc1)Nc1ccc2oc(-c3ccc(F)cc3)nc2c1 | 1.532
O=C(CCc1ccccc1)Nc1ccc2oc(-c3ccc(F)cc3)nc2c1 | 2.127
O=C(Nc1ccc2oc(-c3ccc(F)cc3)nc2c1)OCc1ccc(Cl)cc1 | 1.806
O=C(Cc1ccccc1)Nc1ccc2oc(-c3ccc(F)cc3)nc2c1 | 1.82
O=C(OC(Cn1cncn1)(Cn1cncn1)c1ccc(F)cc1F)C(Br)CCCCCCCCCCBr (stereo unspecified) | 1.342
CN(C)c1ccc(-c2nc3cc(NC(=O)CCc4ccccc4)ccc3o2)cc1 | 1.82
CC(=O)Oc1ccccc1C(=O)OC(Cn1cncn1)(Cn1cncn1)c1ccc(F)cc1F | 3.413
CN(C)c1ccc(-c2nc3cc(NC(=O)OCc4ccccc4)ccc3o2)cc1 | 2.143
CCCCCCCCCCC(Br)C(=O)OC(Cn1cncn1)(Cn1cncn1)c1ccc(F)cc1F (stereo unspecified) | 3.412

SMILES | p(1/MIC)
CN(C)c1ccc(-c2nc3cc(NC(=O)OCc4ccc(Cl)cc4)ccc3o2)cc1 | 1.875
CCCCCCCCCCCCCC(=O)OC(Cn1cncn1)(Cn1cncn1)c1ccc(F)cc1F | 3.143
CCc1ccc(-c2nc3cc(NC(=O)OCc4ccccc4)ccc3o2)cc1 | 1.477
CCc1ccc(-c2nc3cc(NC(=O)OCc4ccc(Cl)cc4)ccc3o2)cc1 | 1.792
CCCCCCCCCCCOP(=O)(OC)OC(Cn1cncn1)(Cn1cncn1)c1ccc(F)cc1F (stereo unspecified) | 3.138
C=CCCCCCCCCCOP(=O)(OC)OC(Cn1cncn1)(Cn1cncn1)c1ccc(F)cc1F (stereo unspecified) | 2.616
Clc1ccc(Cn2cc(Cn3ccnc3)c3ccccc32)cc1 | 1.924
CCCCCCCCCCCOP(=O)(OCCC#N)OC(Cn1cncn1)(Cn1cncn1)c1ccc(F)cc1F (stereo unspecified) | 2.494
C=CCCCCCCCCCOP(=O)(OCCC#N)OC(Cn1cncn1)(Cn1cncn1)c1ccc(F)cc1F (stereo unspecified) | 2.314
C=CCCCCCCCCCOP(=O)(O)OC(Cn1cncn1)(Cn1cncn1)c1ccc(F)cc1F | 3.445
CCCCCCCCCCCCCCOP(=O)(O)OC(Cn1cncn1)(Cn1cncn1)c1ccc(F)cc1F | 3.208
CCCCCCCCOP(=O)(OCCC#N)OC(Cn1cncn1)(Cn1cncn1)c1ccc(F)cc1F (stereo unspecified) | 3.091
C=CCC[N+](C)(C)[BH2-]C#N | 2.672
CCCCCCCCCC(O)C[N+](C)(C)[BH2-]C#N (stereo unspecified) | 2.692
CCCCCCCCCCC[N+](C)(C)[BH2-]C#N | 1.512
C[N+](C)([BH2-]C#N)CC(O)c1ccccc1 (stereo unspecified) | 2.389
CCCCCCCCCCC[N+](C)(C)[BH-](F)C#N (stereo unspecified) | 1.806
O=C(OCCCl)OC(Cn1cncn1)(Cn1cncn1)c1ccc(F)cc1F | 3.374
CC(C)(C)C(c1cn(Cc2ccc(Cl)cc2)c2ccccc12)n1ccnc1 (stereo unspecified) | 1.208
Fc1ccc(Cn2cc(Cn3ccnc3)c3ccccc32)c(F)c1 | 1.695
CCCCCCC(Br)C(=O)OC(Cn1cncn1)(Cn1cncn1)c1ccc(F)cc1F (stereo unspecified) | 1.431

SMILES | p(1/MIC)
Cc1c(Cn2ccnc2)c2ccccc2n1Cc1ccc(Cl)cc1 | 0.474
CC(=O)OC(Cn1cncn1)(Cn1cncn1)c1ccc(F)cc1F | 3.61
CCc1ccc(-c2nc3cc(NC(=O)CCc4ccccc4)ccc3o2)cc1 | 1.813
CCc1ccc(-c2nc3cc(NC(=O)SCc4ccccc4)ccc3o2)cc1 | 2.161
O=C(Nc1ccc2oc(-c3ccccc3)nc2c1)OCc1ccccc1 | 1.505
O=C(Nc1ccc2oc(-c3ccc(F)cc3)nc2c1)c1ccccc1 | 2.1
CCC(Br)C(=O)OC(Cn1cncn1)(Cn1cncn1)c1ccc(F)cc1F (stereo unspecified) | 2.846
O=C(Nc1ccc2oc(-c3ccc(F)cc3)nc2c1)OCc1ccccc1 | 1.785
CCCCCCCCCCCOP(=O)(O)OC(Cn1cncn1)(Cn1cncn1)c1ccc(F)cc1F | 3.148
CCCCCCCCOP(=O)(OC)OC(Cn1cncn1)(Cn1cncn1)c1ccc(F)cc1F (stereo unspecified) | 2.962
O=P(O)(OCCCCCCCCCCCBr)OC(Cn1cncn1)(Cn1cncn1)c1ccc(F)cc1F | 3.377
CCCCCCCCCCCC[N+](C)(C)[BH2-]C#N [(CYANOBORANYLIDENE)(DODECYL)DIMETHYLAMINE] | 1.785
CC[N+](C)(C)[BH2-]C#N [(CYANOBORANYLIDENE)(ETHYL)DIMETHYLAMINE] | 3.649
CCCCCCCCC[N+](C)(C)[BH2-]C#N [(CYANOBORANYLIDENE)DIMETHYLNONYLAMINE] | 2.176
CCCCC[N+](C)(C)[BH2-]C#N [(CYANOBORANYLIDENE)DIMETHYLPENTYLAMINE] | 2.909
C[N+](C)([BH2-]C#N)C[Si](C)(C)C [(CYANOBORANYLIDENE)DIMETHYL[(TRIMETHYLSILYL)METHYL]AMINE] | 3.468
C[N+](C)(C)[BH2-]C#N [(CYANOBORANYLIDENE)TRIMETHYLAMINE] | 3.708
CCCC[N+](C)(C)[BH2-]C#N [BUTYL(CYANOBORANYLIDENE)DIMETHYLAMINE] | 3.553
